Assay results reported in patent US9433663B2, “Mobilization of hematopoietic stem cells” (Children's Hospital Medical Center, priority 2008, dated 2016).

Assays:
Cdc42 = Cdc42 (Mus musculus, UniProt P60766); assay: Rho GTPase effector pull-down in murine LDBM cells, Cdc42; assay type: cell-based; set-up: endogenous in cells; host or cells: murine low density bone marrow (LDBM) cells
Method: To analyze the effects of CASIN on the formation of active GTP-bound Cdc42, RhoA, and Rac1, effector pulldown assays were carried out as described previously. Cdc42GAP^−/− MEF, LDBM, CD34^+ hCB cells were treated with CASIN at doses of 5-20 μM in parallel with vehicle control for 2 hrs after overnight starvation, and stimulated with cytokines subsequently. And then cells were lysed in a buffer containing 20 mM Tris-HCL (pH 7.6), 100 mM NaCl, 1% Triton X-100, 10 mM MgCl2, 2 mM NaF, and Protease inhibitor cocktail (Roche Diagnostics). Lysates were incubated with GST-P21-binding domain of PAK1 for RAC1-GTP and Cdc42-GTP, and GST-RBD domain of Rhotekin for RhoA-GTP respectively. Both bound- and unbound-form of Rho GTPases were probed by immunoblotting with antibodies specific for Rac1 (BD biosciences), Cdc42 (BD biosciences), and RhoA (cell signaling).

[1] = test system: human CD34^+ umbilical cord blood cells; assay: flow cytometry of F-actin polymerization in human CD34+ HCB cells; assay type: cell-based; conditions: human CD34^+ HCBs, SDF-1α induced
Method: FIG. 4A. SDF-1α induced F-actin polymerization over time without or with gradient CASIN treatment, determined by MFI using FACS analysis.
To begin to study potential utility of CASIN in human hematopoietic stem cell mobilization, a series of cellular assays were carried out to determine the effects on human CD34^+ umbilical cord blood cells (HCBs). […] The effects of CASIN on human hematopoietic cell mobilization was therefore tested using a well established preclinical in vivo model (NOD/SCID-Hcb) of human hematopoietic function, where fresh CD34^+ hCB cells were transplanted into sub-lethally irradiated NOD/SCIDs by intrafemoral injection, and repopulated and maintained human hematopoietic reconstitution in the bone marrow of NOD/SCID recipient mice (FIG. 9b, FIG. 11) (Larochelle, A. et al. Nat Med 2, 1329-1337 (1996); Bhatia, M., et al. Proc Natl Acad Sci USA 94, 5320-5325 (1997)). Intravenous injections of CASIN were applied when human cells were well engrafted in the NOD/SCID recipients.

Fancc−/− mice = assay: Example 10 HSC/P mobilization in Fancc−/− mice; conditions: mouse, in vivo
Method: The effects of CASIN on HSC/P mobilization in Fancc−/− mice are investigated under four groups in parallel with WT mice: (1) Control group; (2) G-CSF group: 2.5 μg G-CSF per mouse, twice a day for 4 d120; (3) CASIN group: 2.5 mg/Kg; (4) combination of CASIN and G-CSF: one injection of CASIN is given 40 h before the end of 4 d G-CSF administration.
Fancc−/− or WT mice are mobilized with regimens corresponding to the four experimental groups. Then PB are harvested by cardiac puncture. Phenotypically, the absolute number and percentage of HSC/Ps in PB after mobilization are determined as those of LSK (Lin− Sca+ c-Kit+) cells by flow cytometry. Functionally, CFU-C assay is performed in triplicate for each mouse by using PB of mice from different experimental groups, and CFU-GM, CFU-GEMM, BFU-E, and CFU-E are distinguished by morphology and using cytokine combinations. Furthermore, the long-term repopulation capacity of the mobilized HSCs is evaluated using a competitive repopulating assay and subsequent secondary transplantation as discussed above.

PAK1, WASP, WAVE, ROCK = assay: Example 7 phosphorylation of downstream effectors by western blot; assay type: cell-based, murine LDBM and human HCB cells; conditions: HCB and LDBM cells
Method: To exclude the inhibitory effect of CASIN on other Rac isoforms, Rho GTPases, and Ras, broader effector pull-down experiments are performed on these possible candidates with gradient doses of CASIN in LDBM and HCB cells as previously described. In addition, CASIN has been indicated as a noncovalent and reversible inhibitor in Xenopus egg extract. To confirm it, reversibility is monitored in this set of effector pull-down experiments. Four treatment groups are divided for both LDBM and HCB cells: (1) Serum starvation 20 h; (2) Serum starvation 20 h+growth factors stimulation; (3) Serum starvation 20 h+CASIN treatment (doses: 1, 2.5, 5, and 10 μM) 3 h+growth factor stimulation; (4) Serum starvation 20 h+CASIN treatment (doses: 1, 2.5, 5, and 10 μM) 3 h+wash the cells, and culture for another 3 h for recovery+growth factors stimulation. […] Bound proteins are analyzed by immunoblotting with respective antibodies (BD Biosciences). Furthermore, changes of downstream targets of Cdc42, Rac, and Rho under the four treatment groups are assessed. Phosphorylation status of PAK1, WASP (effectors of Cdc42), WAVE (effector of Rac), and ROCK (effector of Rho) are monitored by western blots using respective antibodies.

[2] = test system: progenitor cells in spleen and liver; assay: CFU-C assays of spleen and liver after treatment; assay type: in vivo, mice; conditions: after CASIN injection
[3] = test system: leukemia initiating cells (LICs); assay type: in vivo
Description: Like normal HSCs, their malignant counterpart, leukemia initiating cells (LICs) reside in their BM niches that provide the structural and physiological conditions supporting their survival and growth. LICs are resistant to traditional chemotherapy by interacting with their BM microenvironment, which are the culprits of leukemia relapses after a period of remission induced by chemotherapy. Detachment of LICs from their niche by CASIN would be a valuable supplementary therapy to the traditional cancer therapies (e.g., chemotherapies). First of all, in vitro effects of CASIN were examined in adhesion, migration, and F-actin polymerization of LICs, each of which is independently important for the retention of LICs in BM niches. Retroviral transduction of an MLL-AF9 fusion cDNA together with N-Ras oncogene into normal human CD34^+cord blood cells led to the establishment of cultures of N-Ras-MA93 cells that can initiate acute myeloid leukemia in NOG mice. […] To address it, a human AML model was set up by transplanting N-RasMA93 cells into NOG mice intravenously.
C57BL/6, NOD/SCID, NOD/SCID-SGM3 and NOD/SCIDγC−/− (NOG) were in house bred in the animal barrier facility of Cincinnati Children's Hospital Medical Center (CCHMC) and used at the age of 6-8 weeks old. Cultured N-RasMA93 cells were injected into NOD/SCIDγC−/− mice by tail vein. […]

Cdc42, sequence (P60766 whole entry, the tested form may be a part): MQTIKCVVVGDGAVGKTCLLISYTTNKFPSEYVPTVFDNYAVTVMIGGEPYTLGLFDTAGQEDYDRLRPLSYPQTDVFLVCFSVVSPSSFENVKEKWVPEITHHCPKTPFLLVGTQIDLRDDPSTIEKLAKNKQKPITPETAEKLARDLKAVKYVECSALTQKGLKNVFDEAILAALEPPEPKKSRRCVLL

Structure (SMILES): OCCNC1CCCc2c1[nH]c1ccc(-c3ccccc3)cc21 (stereo not drawn) [CASIN]
- Cdc42 activity (Cdc42; pre-treatment at 5 and 10 μM, mixed cytokine stimulation): dose-dependent inhibition
- reversibility of Cdc42 activity inhibition (Cdc42; removal of CASIN by a pre-wash): reversible
- F-actin polymerization [1]: inhibited F-actin polymerization of these human progenitors dose-dependently
- mobilization of HSC/Ps (LSK cells, progenitor colonies) in Fancc−/− mice (Fancc−/− mice): effective mobilizer
- phosphorylation of PAK1 and WASP (PAK1, WASP, WAVE, ROCK): inhibit
- phosphorylation of WAVE and ROCK (PAK1, WASP, WAVE, ROCK): without affecting
- progenitor cells found in spleen and liver [2]: increased level
- apoptosis or cell death of leukemia cells in vivo ([3]; in vivo): did not elicit significant apoptosis or cell death
- mobilization of LICs to the peripheral blood ([3]; intravenous, by 20 min post injection): efficiently mobilized the LICs to the peripheral blood transiently
